Biological target: h5-HT2A (Homo sapiens, UniProt P28223)
Experiment: β-arrestin 2 recruitment (NanoBiT), h5-HT2A
Assay type: cell-based
Parameters: expressed in transfected cells
Conditions: for Emax: read-out: β-arrestin 2 recruitment Emax h5-HT2A (95% CI)
Description: Activation of h5-HT2A, h5-HT2B, and h5-HT2C receptors was examined by measuring the accumulation of inositol monophosphate (IP1) as a marker for Gαq-mediated signaling. For h5-HT2A, additional assays measured β-arrestin 2 recruitment and arachidonic acid release, the latter serving as a marker of Gαi/o,12/13 activation. The methodology is described in detail in the Supplementary information.
The IC50 values from the radioligand binding assays were determined by nonlinear regression, using three independent concentration-response curves fitted to a one-site model. The Cheng-Prusoff equation was used to calculate Kᵢ values for the competing ligands. EC50 values were determined by applying nonlinear regression to concentration-response curves. Bias factors (β) were calculated based on the relative intrinsic activity approach. More detailed information can be found in the Supplementary information. Mean values for total number of HTR, change in body temperature from pre to post session (Δ°C), and total distance traveled (cm) for each drug dose were compared (p < 0.05) via Welch’s ANOVA with Dunnett’s T3 post test, comparing all doses to respective vehicle controls (0 mg/kg). Welch’s ANOVA with Dunnett’s T3 post test was also used to compare drug concentrations, but the data were compared to DOM in this case. Dose–response relationships for HTR and locomotor activities were plotted using bell-shaped curve fits, while temperature change data were plotted using four-parameter non-linear regression curve fits. The ascending phase of the HTR curve for each drug was used to determine ED50 potency values from four parameter non-linear regression fits. For combined DOM and DOAM administration, the plasma, brain tissue, and brain dialysate drug concentrations were compared using paired t-tests (p < 0.05). […]
the β-arrestin 2 molecule in the NanoBiT system) were seeded at a density of 50,000 cells per well in poly - D-lysine-coated 96-well plates in medium containing 10% dialyzed FBS. The plate was then incubated at […]
The following day, the cells were washed twice with 150 µL HBSS, and 100 µL HBSS was subsequently added to each well. Thereafter, 25 µL of substrate (1 :20 diluted in buffer) was added, and […]
agonist solutions was added, and the signal was monitored for 2 h. Drug dilutions in HBSS were made from 10 mM stock solutions in DMSO , yielding concentration ranges from 10 µM to 10 pM. All concentrations were run in duplicate and included the appropriate solvent controls. Efficacy was normalized to 5 -HT […]
3.2.3 Arachidonic acid release
Arachidonic acid release was assessed as a marker for Gαi/o,12/13 mediated signaling.
NIH/3T3 cells stably expressing the 5 -HT2A receptor were seeded at a density of 75,000 cells per well in a poly-D-lysine-coated 48-well plate. The following day, the cells were labeled with 300 μL [ 3H]arachidonic […]
Thereafter, the cells were washed 3 times for
(10 mM) of test substances were prepared in DMSO. The final dilution series of test substances dissolved […]
Thereafter, the plate was put on ice, and 400 μL incubation supernatant per well was transferred int o scintillation vials containing scintillation fluid (Ultimagold, Perkin Elmer, Schwerzenbach, Switzerland). The remaining supernatant was removed, and the cells were lysed with 1% sodium dodecyl sulfate lysis buffer. The obtained cell lysate was transferred into scintillation vials containing scintillation fluid. Radioactivity was measured on a liquid scintillation counter (Packard 1900 TR Tri-Carb Liquid Scintillation Counter; Packard Instrument Company). Efficacy was normalized to 5-HT activity.
3.2.4 Calculation of bias factors […]
using 5-HT as the reference agonist.
RApathway = EC50, i = EC50, ref×Emax,i […]

Sequence of h5-HT2A (P28223 whole entry, looked up): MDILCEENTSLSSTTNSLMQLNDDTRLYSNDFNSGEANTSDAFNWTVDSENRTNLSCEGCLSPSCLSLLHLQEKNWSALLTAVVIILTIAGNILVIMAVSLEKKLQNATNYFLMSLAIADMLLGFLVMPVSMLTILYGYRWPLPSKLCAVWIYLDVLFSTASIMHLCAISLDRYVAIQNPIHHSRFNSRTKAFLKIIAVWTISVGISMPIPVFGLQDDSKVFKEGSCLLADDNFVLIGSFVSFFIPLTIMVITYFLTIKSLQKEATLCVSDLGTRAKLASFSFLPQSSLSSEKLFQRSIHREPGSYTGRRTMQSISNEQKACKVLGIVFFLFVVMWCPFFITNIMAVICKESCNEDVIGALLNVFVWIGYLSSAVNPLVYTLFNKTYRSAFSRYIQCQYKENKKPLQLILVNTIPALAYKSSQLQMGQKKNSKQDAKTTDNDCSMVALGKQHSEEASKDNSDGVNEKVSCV

| SMILES | Emax [%] | Agonist type in the β-arrestin 2 recruitment assay at the 5-HT2A receptor | EC50 [nM] |
| --- | --- | --- | --- |
| COc1ccc(OC)c(CC(C)N)c1.Cl (stereo not drawn) [2,5-DMA, 2,5-Dimethoxyamphetamine hydrochloride] | 83 | – | – |
| CCc1cc(OC)c(CC(C)N)cc1OC (stereo not drawn) [DOET, 4-ethyl-2,5-dimethoxyamphetamine] | 99 | full agonists | 12 |
| CCCCCc1cc(OC)c(CC(C)N)cc1OC (stereo not drawn) [DOAM, 4-amyl-2,5-dimethoxyamphetamine] | 85 | – | 56 |
| CCCCc1cc(OC)c(CC(C)N)cc1OC (stereo not drawn) [DOBU, 4-butyl-2,5-dimethoxyamphetamine] | 96 | full agonists | 24 |
| CCCc1cc(OC)c(CC(C)N)cc1OC.Cl (stereo not drawn) [DOPR, 4-propyl-2,5-dimethoxyamphetamine hydrochloride] | 105 | full agonists | 9.3 |
| COc1cc(CC(C)N)c(OC)cc1C (stereo not drawn) [DOM, 4-methyl-2,5-dimethoxyamphetamine] | 97 | full agonists | 55 |

— article PMC12916490 (Molecular Psychiatry, 2025)
